Data: PMC7970697, “Inhibition and Induction by Poziotinib of Different Rat Cytochrome P450 Enzymes In Vivo and in an In Vitro Cocktail Method” (Frontiers in Pharmacology, 2021)
Where two headings read alike, the source gives them in different places.

Target: T1, cyp1a2 (Rattus norvegicus, UniProt P04799)
T1 construct: To this cocktail, 1 mg/ml of RLMs; from tissue; host or cells: rat liver microsomes, prepared in-house
T1 sequence (P04799 1-513): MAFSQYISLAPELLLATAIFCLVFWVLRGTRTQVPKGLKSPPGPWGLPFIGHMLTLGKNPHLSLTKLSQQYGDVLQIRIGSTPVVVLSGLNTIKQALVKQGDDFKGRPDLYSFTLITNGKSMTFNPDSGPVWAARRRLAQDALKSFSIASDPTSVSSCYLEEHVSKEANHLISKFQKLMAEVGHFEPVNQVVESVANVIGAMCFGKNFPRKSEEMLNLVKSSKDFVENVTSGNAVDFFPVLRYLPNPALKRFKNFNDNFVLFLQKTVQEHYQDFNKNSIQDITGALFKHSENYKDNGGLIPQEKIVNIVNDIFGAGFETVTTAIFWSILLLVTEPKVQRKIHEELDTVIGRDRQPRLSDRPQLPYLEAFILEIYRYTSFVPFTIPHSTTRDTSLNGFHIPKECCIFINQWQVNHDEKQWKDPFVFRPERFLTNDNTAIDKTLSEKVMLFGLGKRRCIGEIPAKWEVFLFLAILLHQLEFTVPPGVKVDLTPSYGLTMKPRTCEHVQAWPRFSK
Test: Cocktail method IC50 in rat liver microsomes, phenacetin probe
Type: in vitro ADME
Description: The cocktail method was employed to analyze the effects of poziotinib on cyp1a2, cyp2b1, cyp2c11, cyp2d1, cyp2e1, and cyp3a1/2. […] Then half-maximal inhibitory concentration (IC50) of poziotinib was determined with all of the CYPs. […]. To this cocktail, 1 mg/ml of RLMs, 100 mM potassium phosphate buffer (pH 7.4), poziotinib (1, 2.5, 5, 10, 25, 50, or 100 μM) were added to obtain a final volume of 200 μL. After pre-incubation of this mixture for 5 min in a shaking water bath at 37°C, 1 mM NADPH was added to start the reaction. The reactions were allowed to proceed for 30 min, after which 200 μL of acetonitrile and 20 μL of IS were added to terminate the reactions. The mixtures were vortexed for 30 s and centrifuged again at 13,000 rpm for 5 min.

## C=CC(=O)N1CCC(Oc2cc3c(Nc4ccc(Cl)c(Cl)c4F)ncnc3cc2OC)CC1 [Poziotinib]
  inhibitory effect on cyp1a2 (in words): did not show any obvious inhibitory effect
40 μM phenacetin, cocktail, 30 min
  IC50: 128 µM
Listed as poziotinib
  inhibitory effect on cyp1a2 (in words): not obvious
